Measurements published in patent US10857167B2, “Use of oligosaccharide compositions to enhance weight gain” (Children's Hospital Medical Center, priority 2015, dated 2020).

System: distal small bowel gene expression
Test: RNA sequencing / transcriptional analysis of small bowel 56 days after ICR (2′-FL signature response)
Assay type: in vivo, mouse
Excerpt: Luminal small bowel contents were expressed into AllProtect Tissue Reagent (Qiagen Inc, CA). Bacterial DNA was extracted using the AllPrep DNA/RNA Mini Kit (Qiagen Inc, CA), according to kit instructions and prior to sequencing (described below). Small bowel tissue samples for RNA were placed into RNA Later (Life Technologies, NY). RNA extraction was accomplished following Qiagen RNeasy Plus Kit instruction (Qiagen Inc, CA). All nucleic acid samples were then stored at -80 Celsius until sequenced (described below). Transcriptional analysis was carried out on resected and harvested small bowel samples obtained from operated mice taken to 8 weeks. Murine RNA sequencing libraries were prepared from approximately 1.5 μg RNA using the TruSeq RNA Sample Preparation Kit (Illumina, Calif.) and sequenced using the HiSeq 2000 Sequencing System (Illumina, Calif.) with single-end 50 bp reads. Following removal of primers and barcodes, sequences were aligned to the mm10 genome using reference annotations from UCSC (Rosenbloom et al. (2015) Nucleic acids research 43: […]-681) (n=36,186 entities). Aligned reads were quantified and used to compute reads per kilobase per million mapped reads (RPKM); raw counts were then normalized using the DESeq algorithm and each harvested sample was baselined to its own resected sample. A filter was applied to the data, requiring at least three reads in all samples of at least one of the four experimental conditions (n=14,489 entities). The data discussed in this publication have been deposited in NCBI's Gene Expression Omnibus and are accessible through NCBI Gene Expression Omnibus (GEO) Series accession number GSE72590. Edgar et al. (2002) Nucleic acids research 30: 207-210. In order to characterize the impact of 2'-FL supplementation while accounting for the effect of ileoecal resection, a t-test was applied between resected and harvested samples within control and experimental animals. Significance was set at a p-value of ≤0.05 and a fold change of 3, which generated 2,576 differentially regulated entities across two comparisons. Gene set unions and intersections of the control and experimental gene sets were identified through Venn diagrams. From the master list, the gene list specific to animals supplemented with 2'-FL were removed in order to identify genes differentially regulated only by ICR (n=546 entities); this gene set characterizes the adaptive response. Further, the 2'-FL response (n=2,030 entities) was identified by removing the adaptive response signature described above from the master list, leaving only genes regulated by 2'-FL supplementation after ICR which were not found in the non-supplemented adaptive response. Heatmaps were generated using hierarchical clustering with the Pearson's Centered distance metric and the average linkage rule; both entities and samples were clustered. All genomic analyses described above were performed in Strand NGS (Strand Life Sciences, CA). Gene list functional enrichment was initially discovered using ToppFun, a member of the ToppGene Suite. Chen et al. (2009) Nucleic acids research 37: […]-311. No statistical correction was selected. Gene lists were further analyzed using ClueGO, a plugin for Cytoscape designed to decipher functionally grouped gene ontology and pathway annotation networks. Bindea et al. (2009) Bioinformatics 25: 1091-1093. At the time of data analysis, the annotation files were updated from sources to Jan. 1, 2015. “GO Term Fusion” was enabled to manage ontologic term redundancy and network specificity was set to medium. Results were restricted to pathways with p≤0.05 using Benjamini-Hochberg correction and Kappa scoring was set to 0.4. Biocyc annotations were assigned a rectangle, gene ontology biologic processes were assigned an ellipse, and […] annotations were assigned a diamond shape. No meaning was assigned to size or color. […]

[1] = 2′-FL signature response, harvested vs resected small bowel, 8 weeks

C[C@@H]1O[C@@H](O[C@H]2[C@H](O[C@H]3[C@H](O)[C@@H](O)C(O)O[C@@H]3CO)O[C@H](CO)[C@H](O)[C@@H]2O)[C@@H](O)[C@H](O)[C@@H]1O (stereo partly drawn) [2′-FL, 2′-fucosyllactose]
Fgf15 fold change (FC) [1]: −64.6
Fmr1nb fold change (FC) [1]: 12.7
Hemt1 fold change (FC) [1]: 15.4
Irs2 fold change (FC) [1]: −43.6
Map3k12 fold change (FC) [1]: 16.2
Mcpt2 fold change (FC) [1]: 13.4
P2ry4 fold change (FC) [1]: −22.2
Rnf150 fold change (FC) [1]: −20.4
Tmem202 fold change (FC) [1]: 18.0
Ttc28 fold change (FC) [1]: −24.2
Fold Change (Pre- to Post-op) (0610040B10Rik): 4.168
Fold Change (Pre- to Post-op) (1700019L03Rik): 4.251
Fold Change (Pre- to Post-op) (1700020N01Rik): 4.446
Fold Change (Pre- to Post-op) (1810011O10Rik): 4.443
Fold Change (Pre- to Post-op) (1810059H22Rik): 4.23
Fold Change (Pre- to Post-op) (2010308F09Rik): 14.34
Fold Change (Pre- to Post-op) (3300005D01Rik): 4.41
Fold Change (Pre- to Post-op) (9430038I01Rik): 6.474
Fold Change (Pre- to Post-op) (Atp5j2): 4.445
Fold Change (Pre- to Post-op) (Atpif1): 4.145
Fold Change (Pre- to Post-op) (Bambi-ps1): 4.353
Fold Change (Pre- to Post-op) (Casq1): 4.38
Fold Change (Pre- to Post-op) (Cd320): 4.215
Fold Change (Pre- to Post-op) (Coa4): 4.375
Fold Change (Pre- to Post-op) (Cox7a1): 6.411
Fold Change (Pre- to Post-op) (Dgcr6): 4.237
Fold Change (Pre- to Post-op) (Dnah2): 4.392
Fold Change (Pre- to Post-op) (Dynlt1b): 4.376
Fold Change (Pre- to Post-op) (Dynlt1c): 4.148
Fold Change (Pre- to Post-op) (Elof1): 4.343
Fold Change (Pre- to Post-op) (Fam216a): 4.147
Fold Change (Pre- to Post-op) (Gm5485): 4.139
Fold Change (Pre- to Post-op) (Gm6251): 4.383
Fold Change (Pre- to Post-op) (Gm8274): 4.331
Fold Change (Pre- to Post-op) (Gm10433): 4.377
Fold Change (Pre- to Post-op) (Gm10451): 4.182
Fold Change (Pre- to Post-op) (Hemt1): 15.36
Fold Change (Pre- to Post-op) (Hint1): 4.482
Fold Change (Pre- to Post-op) (Hscb): 4.227
Fold Change (Pre- to Post-op) (Hspb2): 4.189
Fold Change (Pre- to Post-op) (Ift20): 4.337
Fold Change (Pre- to Post-op) (Med11): 4.235
Fold Change (Pre- to Post-op) (Mpc2): 4.128
Fold Change (Pre- to Post-op) (Ndufa7): 4.362
Fold Change (Pre- to Post-op) (Ndufaf5): 4.338
Fold Change (Pre- to Post-op) (Ndufb7): 4.217
Fold Change (Pre- to Post-op) (Oaz1): 4.347
Fold Change (Pre- to Post-op) (Ormdl1): 4.184
Fold Change (Pre- to Post-op) (Pstk): 4.142
Fold Change (Pre- to Post-op) (Rabl5): 4.448
Fold Change (Pre- to Post-op) (Rbp1): 4.364
Fold Change (Pre- to Post-op) (Rilpl2): 4.235
Fold Change (Pre- to Post-op) (Rpl34): 4.37
Fold Change (Pre- to Post-op) (Rps15a-ps4): 4.372
Fold Change (Pre- to Post-op) (Rps24): 4.131
Fold Change (Pre- to Post-op) (Rps25): 4.218
Fold Change (Pre- to Post-op) (S100a6): 4.237
Fold Change (Pre- to Post-op) (Sec22a): 4.221
Fold Change (Pre- to Post-op) (Sh2d1b1): 4.118
Fold Change (Pre- to Post-op) (Smim4): 4.229
Fold Change (Pre- to Post-op) (Smim6): 4.424
Fold Change (Pre- to Post-op) (Tm6sf1): 4.173
Fold Change (Pre- to Post-op) (Tnfsf11): 4.335
Fold Change (Pre- to Post-op) (Wfdc17): 4.382
Fold Change (Pre- to Post-op) (Zfp433): 4.119
Fold Change (Pre- to Post-op) (Zswim7): 4.475
Fold Change (Pre- to Post-op) (gene AI414108): −9.671
Fold Change (Pre- to Post-op) (gene Agap2): −9.801
Fold Change (Pre- to Post-op) (gene Ankrd52): −10.58
Fold Change (Pre- to Post-op) (gene Apba1): −18.88
Fold Change (Pre- to Post-op) (gene Atp1a2): −18.47
Fold Change (Pre- to Post-op) (gene Atp1b2): −18.71
Fold Change (Pre- to Post-op) (gene Bcl9l): −10.08
Fold Change (Pre- to Post-op) (gene Car3): −9.901
Fold Change (Pre- to Post-op) (gene Chd7): −11.26
Fold Change (Pre- to Post-op) (gene D830031N03Rik): −15.57
Fold Change (Pre- to Post-op) (gene Ebf1): −10.39
Fold Change (Pre- to Post-op) (gene Fgf15): −64.61
Fold Change (Pre- to Post-op) (gene Flt1): −15.79
Fold Change (Pre- to Post-op) (gene Fscn1): −10.73
Fold Change (Pre- to Post-op) (gene Gltscr1): −13.3
Fold Change (Pre- to Post-op) (gene Irs2): −43.6
Fold Change (Pre- to Post-op) (gene Ldoc1l): −10.25
Fold Change (Pre- to Post-op) (gene Leprel1): −9.903
Fold Change (Pre- to Post-op) (gene Lyst): −9.938
Fold Change (Pre- to Post-op) (gene Nav2): −12.39
Fold Change (Pre- to Post-op) (gene Nfix): −16.561
Fold Change (Pre- to Post-op) (gene Nos1ap): −10.38
Fold Change (Pre- to Post-op) (gene P2ry4): −22.22
Fold Change (Pre- to Post-op) (gene Parvb): −9.684
Fold Change (Pre- to Post-op) (gene Peg3): −15.37
Fold Change (Pre- to Post-op) (gene Plin1): −16.34
Fold Change (Pre- to Post-op) (gene Polr2a): −18.45
Fold Change (Pre- to Post-op) (gene Ptpru): −10.01
Fold Change (Pre- to Post-op) (gene Rgs9): −9.821
Fold Change (Pre- to Post-op) (gene Rnf150): −20.41
Fold Change (Pre- to Post-op) (gene Scd1): −20.28
Fold Change (Pre- to Post-op) (gene Sema3g): −18.02
Fold Change (Pre- to Post-op) (gene Shank3): −15.22
Fold Change (Pre- to Post-op) (gene Soga1): −14.4
Fold Change (Pre- to Post-op) (gene Spen): −14.44
Fold Change (Pre- to Post-op) (gene Tenm3): −14.72
Fold Change (Pre- to Post-op) (gene Tiam1): −15.28
Fold Change (Pre- to Post-op) (gene Tmem151a): −10.06
Fold Change (Pre- to Post-op) (gene Tomm6os): −12.41
Fold Change (Pre- to Post-op) (gene Trerf1): −9.926
Fold Change (Pre- to Post-op) (gene Trim56): −9.711
Fold Change (Pre- to Post-op) (gene Ttc28): −24.22
Fold Change (Pre- to Post-op) (gene Zbed6): −9.794
Fold Change (Pre- to Post-op) (gene Zfp609): −11.22
number of downregulated entities of the 2′-FL signature response (small bowel 56 days after ICR): 1,247
